Laboratory results: US20230212225A1, “PEPTIDE COMPOSTIONS AND METHODS FOR TREATING TAUOPATHIES” (AXOLTIS PHARMA, priority 2019, published 2023)
Where a SMILES comes first, the peptide text is derived from it.

Experiments:
[1] = tested on: Aβ25-35-induced spatial working memory deficits; test: Place learning in the Morris water-maze (MWM), D09-D14; type: in vivo, mice; settings: IP 2 mg/kg once a day
Method: The examples are using a model of Tauopathies. In this model, mice were injected intracerebroventricularly (ICV) at Day 01 (D01) with Aβ25-35 peptide (or with scrambled-Aβ peptide (Sc.Aβ) for Sham animals). This severe animal model recapitulates modulations of specific biomarkers (including deposits of brain Amyloid Beta1-42 and hyperphosphorylated Tau protein) involved in the physiopathology and the progression of human Tauopathies, as well as strong cognitive deficits (memory loss) as encountered by the patients (Maurice et al., 1996, 1998, 2013; Meunier et al., 2006).
After the Y-Maze and instead of performing the STPA test, some animals performed the Morris Water-Maze (MWM) test in order to assess spatial working memory deficits (a six-day test from D09 to D14). This gold-standard test consists in a circular pool filled with opaque water placed in a room with external cues (sink, contrasted posters, shelves). A platform is immersed under the water surface during acquisition. Training consists in 3 swims per day for 5 days, performed between D09 to D13, with a 20 min inter-trial time. Each mouse is allowed to swim for 90 sec in order to find the platform, and to stay on it for 20 sec.
A probe test (PT) is performed 24 h after the last swim on D14. For the PT, the platform is removed, and each animal is allowed to swim for 60 sec. The start position for each mouse corresponds to one of two positions remote from the platform location in a counterbalanced order. The platform quadrant is named ‘target’ and other quadrants (opposite, adjacent right and adjacent left) are named ‘other’ during the PT. The time spent in each quadrant is recorded. The results are expressed as the percentage of time spent in the target quadrant compared to the mean percentage of time spent in the three other quadrants.
Every day, the latencies to find the platform during the first (swim1), second (swim2), third (swim3), […] trials were monitored and averaged in this six-day experiment (Maurice et al., 2013).

[2] = tested on: Aβ25-35-induced short-term memory deficits; test: Late-stage efficacy: Y-maze with treatment started at D11; type: in vivo, mice
Method: Seven days after ICV injection of Aβ25-35 peptide (D08), all animals were tested for spontaneous alternation performance in the Y-maze, an index of spatial working memory (short-term memory test). Each mouse was placed at the end of one arm and allowed to move freely through the maze during an 8 min session. An alternation is defined as entries into all three arms on consecutive occasions. The number of maximum alternations is therefore the total number of arm entries minus two and the percentage of alternation is calculated as (actual alternations / maximum alternations) x 100. This parameter includes the percentage of alternation (memory index) (Maurice et al., 1996, 1998; Meunier et al., 2006).
The efficacy of NX210 and NX218 SCO-Spondin derived peptides was therefore assessed during this late-stage physiopathology setting. Specifically, the administrations of NX210, NX218 or vehicle were started at D11 and were repeated once a day until the end of the experiment.
All animals were tested for spontaneous alternation performance in the Y-maze, an index of short-term memory (see Example 3 for method details) from D08 (i.e. pre-treatment values) and then once a week for three weeks (D15, D22, D29).

[3] = D08, pre-treatment value, IP 2 mg/kg once a day started at D11
[4] = D15, IP 2 mg/kg once a day started at D11
[5] = D22, IP 2 mg/kg once a day started at D11
[6] = D29, IP 2 mg/kg once a day started at D11

`N=C(N)NCCC[C@H](NC(=O)[C@H](CO)NC(=O)[C@H](CS)NC(=O)[C@H](CO)NC(=O)[C@H](CO)NC(=O)[C@H](Cc1c[nH]c2ccccc12)NC(=O)CNC(=O)[C@H](CO)NC(=O)[C@@H](N)Cc1c[nH]c2ccccc12)C(=O)N[C@@H](CO)C(=O)N[C@@H](CS)C(=O)NCC(=O)O` [NX210, W-S-G-W-S-S-C-S-R-S-C-G] (H-WSGWSSCSRSCG-OH; N-terminus and C-terminus assumed) was tested, and the “effect on learning profile and spatial memory deficits (MWM), in words” value [1] was “significantly rescued”, the “MWM - Probe test, mean percentage of time spent in the three other quadrants (Other)” value ([1]; D14) was 20.30% and the “MWM - Learning profile, Mean time spent to find the platform (last block, heading missing)” value ([1]; fifth training day) was 24.25 s. The “MWM - Learning profile - Day 1, Mean time spent to find the platform” value ([1]; training Day 1) was 79.67 s, the “MWM - Learning profile - Day 2, Mean time spent to find the platform” value ([1]; training Day 2) was 53.58 s and the “MWM - Learning profile - Day 3, Mean time spent to find the platform” value ([1]; training Day 3) was 35.83 s. For the same compound, the “MWM - Learning profile - Day 4, Mean time spent to find the platform” value ([1]; training Day 4) was 25.92 s, the “Y-maze (D08) % (Sc.Aβ / D11 vhc = 100)” value [2, 3] was 55% and the “Y-maze (D08) Mean, percentage of alternation” value [2, 3] was 39.17%. The “effect on short-term working memory deficits at D15, in words” value ([2]; D15, five daily administrations, 2 mg/kg started at D11) was “tendency to rescue”, the “Y-maze (D15) % (Sc.Aβ / D11 vhc = 100)” value [2, 4] was 71% and the “Y-maze (D15) Mean, percentage of alternation” value [2, 4] was 55.55%. For the same compound, the “effect on working memory deficits at D22, in words” value ([2]; D22, 12 day-treatment, 2 mg/kg started at D11) was “significantly rescued”, the “Y-maze (D22) % (Sc.Aβ / D11 vhc = 100)” value [2, 5] was 82% and the “Y-maze (D22) Mean, percentage of alternation” value [2, 5] was 60.08%. For the same compound, the “effect on memory deficits at D29, in words” value ([2]; D29, 19 day-treatment, 2 mg/kg started at D11) was “fully restored”, the “Y-maze (D29) % (compared to Sham group)” value [2, 6] was 97% and the “Y-maze (D29) Mean, percentage of alternation” value [2, 6] was 74.73%.
